# In patent US8455525B2, “Selective androgen receptor modulators” (Radius Health, Inc., priority 2008, dated 2013):
# Like-named read-outs stand apart in the source and are kept apart here.
# How the values were obtained:
# androgen receptor (AR) = molecular target: T1, androgen receptor (AR) (Rattus norvegicus, UniProt P15207); test: androgen receptor binding assay (fluorescence polarization, Fluormone AL Green competition)
# T1 construct: purchased Invitrogen, Madison, Wis
# T1 sequence (P15207 651-902 limits assumed): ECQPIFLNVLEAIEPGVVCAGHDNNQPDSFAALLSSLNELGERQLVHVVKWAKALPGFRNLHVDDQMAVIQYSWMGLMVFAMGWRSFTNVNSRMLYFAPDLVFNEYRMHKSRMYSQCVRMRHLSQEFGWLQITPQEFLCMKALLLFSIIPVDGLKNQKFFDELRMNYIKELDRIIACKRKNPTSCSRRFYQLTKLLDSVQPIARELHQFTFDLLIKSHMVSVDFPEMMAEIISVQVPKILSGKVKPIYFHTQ
# [1] = tested on: young, orchidectomized rats; test: Rat Herschberger assay: organ weights of orchidectomized rats relative to sham; type: in vivo, rat (Sprague Dawley); conditions: 10 mg/kg (po), once daily for 4 days
# Description: The following is a typical procedure of the in vivo evaluation of the selective androgens of this invention. In particular, this assay looks primarily at the ability of the selective androgens of this invention to increase muscle size in an immature, castrated rat. In addition, androgenic effects are looked at primarily by weighing the prostate and seminal vesicles. Selective compounds will show a greater increase in the levator ani relative to the prostate and seminal vesicles when compared to testosterone treated, castrated animals or to intact animals that have not been treated. Immature Sprague Dawley male rats were obtained Charles River Laboratories (Stoneridge, N.Y.). All animals were maintained in a temperature and humidity controlled room with a 12 hr light: 12 hr dark cycle, with ad lib access to food (TD 291615, Teklad, Madison, Wis.) and water. Rats were anesthetized and orchidectomized (GDX) or sham surgery (SHAM) was performed. After a 7-day recovery period, the animals were randomized according to weight and assigned to treatment groups (n=5), SHAM, OVX+ vehicle, OVX+Cpd treated. Testosterone propionate (TP 1 mg/kg in 5% DMSO/95% corn oil) was administered by once daily subcutaneous injections, while the compounds of the invention are dosed in vehicle (typically 20% cyclodextrin or 0.5% carboxymethylcellulose) was administered by once daily oral gavage. The rats were then dosed once daily for 4 days. All animals were euthanized via carbon dioxide inhalation 24 hs after the last dose. The prostate, seminal vesicle and levator ani and bulba cavernous (LABC) tissues were removed, weighed and recorded. Body weights were recorded for each animal at baseline and at sacrifice.
# Prostate, seminal vesicle and levator ani bulbus cavernosus (LABC) are all represented as % relative to sham. After sacrifice, organ weights of young, orchidectomized rats treated with compound for 4 days are compared to sham operated animals.
smiles,measurement,setting,value
"Cc1c(N[C@@H](c2nnc(-c3ccccc3)o2)[C@@H](C)O)ccc(C#N)c1Cl [Example 3, 2-chloro-4-((1R,2R)-2-hydroxy-1-(5-phenyl-1,3,4-oxadiazol-2-yl)propylamino)-3-methylbenzonitrile]",IC50,androgen receptor (AR),6 nM
same,"LABC (levator ani bulbus cavernosus) weight, % relative to sham",[1],99%
same,"Prostate weight, % relative to sham",[1],43%
same,"Seminal vesicle weight, % relative to sham",[1],37%
"Cc1c(N[C@@H](c2nnc(-c3ccccc3)o2)[C@H](C)O)ccc(C#N)c1Cl [Example 1, 2-chloro-4-((1R,2S)-2-hydroxy-1-(5-phenyl-1,3,4-oxadiazol-2-yl)propylamino)-3-methylbenzonitrile]",IC50,androgen receptor (AR),3 nM
same,"LABC (levator ani bulbus cavernosus) weight, % relative to sham",[1],85%
same,"Prostate weight, % relative to sham",[1],46%
same,"Seminal vesicle weight, % relative to sham",[1],69%
"C[C@H](O)[C@@H](Nc1ccc(C#N)c(Cl)c1Cl)c1nnc(-c2ccc(Cl)cc2)o1 [Example 34, 2,3-Dichloro-4-((1R,2S)-1-(5-(4-chlorophenyl)-1,3,4-oxadiazol-2-yl)-2-hydroxypropylamino)benzonitrile]",IC50,androgen receptor (AR),4 nM
"C[C@@H](O)[C@@H](Nc1ccc(C#N)c2ccccc12)c1nnc(-c2ccc(C#N)cc2)o1 [Example 51, 4-((1R,2R)-1-(5-(4-Cyanophenyl)-1,3,4-oxadiazol-2-yl)-2-hydroxypropylamino)-1-naphthonitrile]",IC50,"androgen receptor (AR); single determination or average of multiple determinations, read-out: Binding IC50 (AR-Binding Affinity)",600 nM
"Cc1c(N[C@@H](c2nnc(-c3ccccc3)s2)[C@H](C)O)ccc(C#N)c1Cl [Example 27, 2-chloro-4-((1R,2S)-2-hydroxy-1-(5-phenyl-1,3,4-thiadiazol-2-yl)propylamino)-3-methylbenzonitrile]",IC50,androgen receptor (AR),10 nM
